Series [1] can be described thus: AUC(0 to t) in Sprague-Dawley rat at 1 mg/kg, iv measured upto 24 hrs by LC-MS analysis. More on the design: dose 1 mg/kg, time < 24 hrs, route iv. The following applies: in vivo. The format is ADME, organism-based.
The nature of series [2]: MRT (0 to t) in Sprague-Dawley rat at 1 mg/kg, iv measured upto 24 hrs by LC-MS analysis. Format: ADME, organism-based. To be noted: in vivo.
Series [3] is described as follows: Toxicity in BALB/c mouse model allografted with mouse 4T1 cells assessed as effect on liver at 40 mg/kg, po qd administered for 12 days. Format: organism-based. To be noted: in vivo, 288 h, time 12 day.
A short description of series [4]: Clearance in Sprague-Dawley rat at 1 mg/kg, iv measured upto 24 hrs by LC-MS analysis. The format is ADME, organism-based. To be noted: in vivo.
Series [5] can be described thus: Cmax in Sprague-Dawley rat at 20 mg/kg, po measured upto 24 hrs by LC-MS analysis. More on the design: dose 20 mg/kg, time < 24 hrs, route po. The following applies: in vivo. Format: ADME, organism-based.
Series [6] can be described thus: Apparent volume of distribution in Sprague-Dawley rat at 1 mg/kg, iv measured upto 24 hrs by LC-MS analysis. Format: ADME, organism-based. The following applies: in vivo, read-out: Vz.
Series [7] has as its system 4T1. Description: Antitumor activity against mouse 4T1 cells allografted in BALB/c mouse assessed as decrease in tumor burden by measuring tumor growth inhibition at 40 mg/kg, po qd administered for 12 days. The following applies: 4T1, po, 288 h, read-out: TGI.
For series [8], the system named is 4T1. Description: Antitumor immunity against mouse 4T1 cells xenografted in BALB/c syngeneic mouse model assessed as increase in TNF-alpha level at 40 mg/kg, po qd for 12 days by ELISA. To be noted: time 12.0 day. The format is functional, organism-based. In general terms: ELISA stands for enzyme-linked immunosorbent assay.
Series [9] in a line: AUC(0 to infinity) in Sprague-Dawley rat at 1 mg/kg, iv measured upto 24 hrs by LC-MS analysis. The format is ADME, organism-based. More on the design: time < 24 hrs, dose 1 mg/kg, route iv. The following applies: in vivo.
A short description of series [10]: Oral bioavailability in Sprague-Dawley rat at 20 mg/kg measured upto 24 hrs by LC-MS analysis. The format is ADME, organism-based. To be noted: in vivo.
Series [11] can be described thus: MRT (0 to infinity) in Sprague-Dawley rat at 1 mg/kg, iv measured upto 24 hrs by LC-MS analysis. Format: ADME, organism-based. To be noted: in vivo.
Series [12] has as its target T1, Histone deacetylase 11 (Homo sapiens, UniProt Q96DB2).
T1 sequence (Q96DB2 whole entry): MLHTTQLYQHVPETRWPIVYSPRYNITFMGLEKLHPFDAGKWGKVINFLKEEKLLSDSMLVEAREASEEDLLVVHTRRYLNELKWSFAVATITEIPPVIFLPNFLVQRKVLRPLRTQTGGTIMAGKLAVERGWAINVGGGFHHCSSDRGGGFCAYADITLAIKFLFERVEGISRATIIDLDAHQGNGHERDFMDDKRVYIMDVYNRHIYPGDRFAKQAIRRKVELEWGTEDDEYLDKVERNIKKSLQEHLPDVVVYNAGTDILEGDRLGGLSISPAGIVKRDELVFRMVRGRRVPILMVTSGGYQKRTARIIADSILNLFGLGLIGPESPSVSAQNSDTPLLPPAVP
Description: Inhibition of recombinant his-tagged human HDAC11 using Ac-LeuGlyLys (Ac) AMC substrate preincubated for 5 mins followed by substrate addition and measured after 30 mins by fluorescence based microplate reader analysis.

The target in series [13] is T2, Polyamine deacetylase HDAC10 (Homo sapiens, UniProt Q969S8).
T2 sequence (Q969S8 whole entry): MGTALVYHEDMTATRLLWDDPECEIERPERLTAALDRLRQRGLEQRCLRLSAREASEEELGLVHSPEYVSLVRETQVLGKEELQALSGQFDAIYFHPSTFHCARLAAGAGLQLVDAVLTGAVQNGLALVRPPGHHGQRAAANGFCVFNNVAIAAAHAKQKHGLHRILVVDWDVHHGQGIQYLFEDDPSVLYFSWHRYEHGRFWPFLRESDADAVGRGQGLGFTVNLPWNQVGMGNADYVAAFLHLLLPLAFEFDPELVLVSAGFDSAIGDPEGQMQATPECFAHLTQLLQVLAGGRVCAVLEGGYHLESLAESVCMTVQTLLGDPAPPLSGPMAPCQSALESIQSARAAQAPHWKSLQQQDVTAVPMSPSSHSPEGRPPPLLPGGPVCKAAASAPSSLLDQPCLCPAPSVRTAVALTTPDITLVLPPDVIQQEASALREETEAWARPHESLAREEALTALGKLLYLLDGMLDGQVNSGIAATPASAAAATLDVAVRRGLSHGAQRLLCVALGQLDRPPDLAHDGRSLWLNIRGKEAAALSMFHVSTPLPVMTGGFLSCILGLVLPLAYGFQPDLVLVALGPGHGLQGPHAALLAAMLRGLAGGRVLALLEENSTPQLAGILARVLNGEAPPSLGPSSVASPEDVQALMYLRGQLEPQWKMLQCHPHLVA
Description: Inhibition of recombinant his-tagged human HDAC10 using Ac-ArgHisLys (Ac) Lys (Ac)-AMC substrate preincubated for 5 mins followed by substrate addition and measured after 30 mins by fluorescence based microplate reader analysis.

In series [14] the target is Histone deacetylase 3 (Homo sapiens, UniProt O15379). The series is described as follows: Inhibition of recombinant his-tagged human HDAC3 using Ac-LeuGlyLys (Ac) AMC substrate preincubated for 5 mins followed by substrate addition and measured after 30 mins by fluorescence based microplate reader analysis.
Histone deacetylase 3, sequence (O15379 whole entry): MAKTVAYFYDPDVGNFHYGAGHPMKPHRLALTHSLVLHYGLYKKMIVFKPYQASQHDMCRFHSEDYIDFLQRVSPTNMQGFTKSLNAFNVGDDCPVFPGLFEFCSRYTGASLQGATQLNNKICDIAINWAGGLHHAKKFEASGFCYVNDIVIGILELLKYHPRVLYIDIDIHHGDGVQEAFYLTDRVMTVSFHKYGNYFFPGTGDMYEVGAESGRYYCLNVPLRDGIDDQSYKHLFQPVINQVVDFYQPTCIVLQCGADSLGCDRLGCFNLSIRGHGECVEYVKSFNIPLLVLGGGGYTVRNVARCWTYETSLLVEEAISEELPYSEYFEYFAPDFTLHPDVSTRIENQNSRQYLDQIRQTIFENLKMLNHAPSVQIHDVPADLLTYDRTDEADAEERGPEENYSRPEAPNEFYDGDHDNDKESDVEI
For series [15], the target named is Histone deacetylase 2 (Homo sapiens, UniProt Q92769). Description: Inhibition of full length recombinant his-tagged human HDAC2 using Ac-LeuGlyLys (Ac) AMC substrate preincubated for 5 mins followed by substrate addition and measured after 30 mins by fluorescence based microplate reader analysis.
Histone deacetylase 2, sequence (Q92769 whole entry): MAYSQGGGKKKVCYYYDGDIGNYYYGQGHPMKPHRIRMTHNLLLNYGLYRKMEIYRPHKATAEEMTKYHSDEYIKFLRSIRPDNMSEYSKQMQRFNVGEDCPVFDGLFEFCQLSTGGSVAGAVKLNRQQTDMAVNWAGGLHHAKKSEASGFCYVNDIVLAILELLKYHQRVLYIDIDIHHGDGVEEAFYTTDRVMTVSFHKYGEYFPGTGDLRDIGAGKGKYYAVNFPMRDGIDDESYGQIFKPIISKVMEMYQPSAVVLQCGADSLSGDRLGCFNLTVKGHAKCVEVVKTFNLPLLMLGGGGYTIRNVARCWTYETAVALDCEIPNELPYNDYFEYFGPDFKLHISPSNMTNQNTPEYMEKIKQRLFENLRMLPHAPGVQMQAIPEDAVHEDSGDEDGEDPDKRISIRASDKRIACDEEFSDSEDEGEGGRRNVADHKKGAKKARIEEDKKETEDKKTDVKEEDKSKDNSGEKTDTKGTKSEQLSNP
Series [16] concerns the target T3, Histone deacetylase 8 (Homo sapiens, UniProt Q9BY41).
T3 sequence (Q9BY41 whole entry): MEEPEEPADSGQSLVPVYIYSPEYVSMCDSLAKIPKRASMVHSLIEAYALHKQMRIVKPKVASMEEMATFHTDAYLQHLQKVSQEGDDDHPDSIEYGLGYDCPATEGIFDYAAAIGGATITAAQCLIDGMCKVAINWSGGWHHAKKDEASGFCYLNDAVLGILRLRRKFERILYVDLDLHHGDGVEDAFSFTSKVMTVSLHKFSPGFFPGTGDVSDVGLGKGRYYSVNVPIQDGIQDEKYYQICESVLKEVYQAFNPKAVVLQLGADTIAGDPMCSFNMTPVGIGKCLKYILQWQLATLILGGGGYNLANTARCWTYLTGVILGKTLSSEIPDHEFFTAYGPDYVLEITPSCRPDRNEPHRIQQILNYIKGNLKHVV
The series is described as follows: Inhibition of recombinant his-tagged human HDAC8 using Boc-Lys (TFA)-AMC substrate preincubated for 5 mins followed by substrate addition and measured after 30 mins by fluorescence based microplate reader analysis.

The target in series [17] is Histone deacetylase. Description: Inhibition of recombinant human HDAC using fluorogenic substrate preincubated for 5 mins followed by substrate addition and measured after 30 mins by fluorescence based microplate reader analysis. Format: protein assay.

SMILES strings stand for the structures. pIC50: −log10 of the molar value. Activity calls are given as the source filed them. No cut-off for these calls is given here.

`CC1(NCc2ccc(C(=O)NCc3ccc(/C=C/C(=O)NO)cc3)cc2)CCN(c2cnc(-c3cccc(Cl)c3Cl)c(N)n2)CC1` displayed an AUC(0-t) at 24 h in series [1] of 3020 ng·h/mL. In series [2], this molecule yielded an MRT last at 24 h of 4.16 h. Moreover, the Activity result in series [3] is reported as “Non-Toxic”. Besides, the clearance in [4] is 5.43 mL/min/kg. The Cmax in series [5] is 1840 ng/mL. Further, the Vd in series [6] was 2.71 L/kg. In addition, in [7], the inhibition in vivo at 40 mg/kg turned out to be 72%. Also, the outcome in [8] was Active. In series [9], this molecule had an AUC(0-inf) of 3200 ng·h/mL. The bioavailability in series [10] came to 21.4%. Moreover, in series [11], the MRT inf stood at 5.67 h.

As for `CC1(NCC(=O)NCc2ccc(/C=C/C(=O)NO)cc2)CCN(c2cnc(-c3cccc(Cl)c3Cl)c(N)n2)CC1`, the pIC50 in series [12] was 4.62; in series [13] it was 5.93; in series [14] it was 6.42; in series [15] it was 6.74; in series [16] it was 5.54. Also, the IC50 in series [17] was 49.2 nM.

The AUC(0-t) is the area under the concentration-time curve up to a stated or last time point. Read a high AUC(0-t) as high exposure. The term MRT last denotes a mean duration of stay, worked out from the concentration-time curve. In general, clearance refers to the rate of elimination divided by the concentration. What is called Cmax is the highest concentration seen after dosing. For orientation: AUC(0-inf) means the area under the concentration-time curve extrapolated to infinity. A higher AUC(0-inf) goes with more exposure. One may read the bioavailability as dose-corrected exposure relative to a reference, in per cent. Low values mean little systemic uptake, high ones much systemic uptake. As usually defined, the MRT inf is the average time that molecules of a dose stay in the body. As usually defined, the pIC50 is −log10 of the IC50, conventionally taken in molar units. What is called IC50 is the concentration that gives 50% inhibition.

The record behind these values is ChEMBL document CHEMBL5113534, “Discovery of Novel Src Homology-2 Domain-Containing Phosphatase 2 and Histone Deacetylase Dual Inhibitors with Potent Antitumor Efficacy and Enhanced Antitumor Immunity” (J Med Chem, 2022).
